Experimental data: ChEMBL document CHEMBL1201862, “PubChem BioAssay data set” (2004)
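Where inhibition never reached the appropriate level, the endpoint shown equals the highest concentration tested. Otherwise, values were interpolated linearly from a five-concentration, 48-hour dose response in 96-well plates. GI50 is the concentration that inhibits growth by half.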 Active and inactive are the calls of the source. No stated cut-off is given here; in the data, active = GI50 up to about 1.1 µM and inactive = higher.

What was measured:
Experiment in all cases: DTP human tumour cell line panel, 48 h
MDA-MB-231 = system: MDA-MB-231
EKVX = system: EKVX
OVCAR-8 = system: OVCAR-8
T47D = system: T47D
SK-MEL-2 = system: SK-MEL-2
SK-MEL-28 = system: SK-MEL-28
MDA-MB-435 = system: MDA-MB-435
RPMI-8226 = system: RPMI-8226
HT-29 = system: HT-29
UACC-257 = system: UACC-257
SNB-19 = system: SNB-19
SK-MEL-5 = system: SK-MEL-5
HCT-116 = system: HCT-116
PC-3 = system: PC-3
U-251 = system: U-251
SW-620 = system: SW-620
MOLT-4 = system: MOLT-4
NCI-H23 = system: NCI-H23
DLD-1 = system: DLD-1
SF-295 = system: SF-295

Compound	GI50 (MDA-MB-231)	GI50 (EKVX)	GI50 (OVCAR-8)	GI50 (T47D)	GI50 (SK-MEL-2)	GI50 (SK-MEL-28)	GI50 (MDA-MB-435)	GI50 (RPMI-8226)	GI50 (HT-29)	GI50 (UACC-257)	GI50 (SNB-19)	GI50 (SK-MEL-5)	GI50 (HCT-116)	GI50 (PC-3)	GI50 (U-251)	GI50 (SW-620)	GI50 (MOLT-4)	GI50 (NCI-H23)	GI50 (DLD-1)	GI50 (SF-295)
C=C1C(=O)O[C@@H]2C[C@@H](C)[C@@H]3C=CC(=O)[C@@]3(C)[C@@H](OC(=O)CC(=O)O[C@H]3[C@@H]4C(=C)C(=O)O[C@@H]4C[C@@H](C)[C@@H]4C=CC(=O)[C@]43C)[C@H]12	0.0552 µM (active)	0.0811 µM (active)	0.0299 µM (active)	0.179 µM (active)	0.0893 µM (active)	0.0398 µM (active)	0.0356 µM (active)	0.0124 µM (active)	0.0342 µM (active)	0.0252 µM (active)	0.548 µM (active)	0.0869 µM (active)	0.0143 µM (active)	0.146 µM (active)	0.0356 µM (active)	0.0129 µM (active)	0.0153 µM (active)	0.0345 µM (active)	< 0.01 µM (active)	0.115 µM (active)
CCOC(=O)c1oc2ccc([N+](=O)[O-])c3c2c1CCC3	36.5 µM (inactive)	73.6 µM (inactive)	82.4 µM (inactive)	> 31.6 µM (inactive)	47.1 µM (inactive)	> 82.4 µM (inactive)	> 39.3 µM (inactive)	> 100 µM (inactive)	> 100 µM (inactive)	> 82 µM (inactive)	34.7 µM (inactive)	69.7 µM (inactive)	51.1 µM (inactive)	> 100 µM (inactive)	29.9 µM (inactive)	> 90.8 µM (inactive)	> 100 µM (inactive)	61.4 µM (inactive)	> 100 µM (inactive)	23.9 µM (inactive)
Brc1ccc(N2C[N+](c3ccc(Br)cc3)=NC(c3ccccc3)=N2)cc1	–	16.7 µM (inactive)	21.9 µM (inactive)	–	17 µM (inactive)	23 µM (inactive)	–	9.35 µM (inactive)	14.1 µM (inactive)	17.5 µM (inactive)	17.3 µM (inactive)	16 µM (inactive)	18.8 µM (inactive)	–	19.1 µM (inactive)	20.9 µM (inactive)	14.2 µM (inactive)	16.1 µM (inactive)	12.6 µM (inactive)	15.5 µM (inactive)
COc1ccc(C2c3cc(OC)c(OC)cc3C(Cc3ccc([N+](=O)[O-])cc3)C2c2ccc([N+](=O)[O-])cc2)cc1OC (stereo unspecified)	–	> 100 µM (inactive)	> 100 µM (inactive)	–	> 100 µM (inactive)	> 100 µM (inactive)	–	> 100 µM (inactive)	> 100 µM (inactive)	> 100 µM (inactive)	> 100 µM (inactive)	> 100 µM (inactive)	14 µM (inactive)	–	> 100 µM (inactive)	> 100 µM (inactive)	> 100 µM (inactive)	> 100 µM (inactive)	> 100 µM (inactive)	> 100 µM (inactive)
COC(CN1C(=O)c2cccc3cccc(c23)C1=O)OC	–	49 µM (inactive)	71 µM (inactive)	–	1.61 µM (inactive)	> 100 µM (inactive)	–	52.6 µM (inactive)	> 100 µM (inactive)	78.2 µM (inactive)	> 100 µM (inactive)	70.1 µM (inactive)	46.2 µM (inactive)	–	42.4 µM (inactive)	91.8 µM (inactive)	32.3 µM (inactive)	> 100 µM (inactive)	> 100 µM (inactive)	> 100 µM (inactive)
CC(=O)NC(C=O)C(O[C@H](C)C(=O)NC(C)C(=O)NC(CCC(N)=O)C(=O)OCc1ccccc1)C(O)C(O)COC(=O)CCNc1c2ccccc2nc2cccc([N+](=O)[O-])c12 (stereo partly specified)	–	5.7 µM (inactive)	4.89 µM (inactive)	–	1.63 µM (inactive)	3.19 µM (inactive)	–	1.63 µM (inactive)	2.14 µM (inactive)	7.46 µM (inactive)	4.49 µM (inactive)	> 100 µM (inactive)	1.37 µM (inactive)	–	2.56 µM (inactive)	1.99 µM (inactive)	3.57 µM (inactive)	2.47 µM (inactive)	3.41 µM (inactive)	13.1 µM (inactive)
COc1ccc(CCC2c3cc(OC)c(OC)cc3CCN2C)cc1OC (stereo unspecified)	–	> 100 µM (inactive)	> 100 µM (inactive)	–	> 100 µM (inactive)	> 100 µM (inactive)	–	> 100 µM (inactive)	> 100 µM (inactive)	> 100 µM (inactive)	> 100 µM (inactive)	> 100 µM (inactive)	> 100 µM (inactive)	–	> 100 µM (inactive)	> 100 µM (inactive)	> 100 µM (inactive)	> 100 µM (inactive)	> 100 µM (inactive)	> 100 µM (inactive)
COC(=O)CC1C[C@H](C#N)N(C(=O)c2ccccc2)C[C@@H]1CC[N+](=O)[O-] (stereo partly specified)	–	> 100 µM (inactive)	> 100 µM (inactive)	–	0.0546 µM (active)	> 100 µM (inactive)	–	> 100 µM (inactive)	> 100 µM (inactive)	> 100 µM (inactive)	> 100 µM (inactive)	> 100 µM (inactive)	> 100 µM (inactive)	–	> 100 µM (inactive)	> 100 µM (inactive)	> 100 µM (inactive)	> 100 µM (inactive)	> 100 µM (inactive)	> 100 µM (inactive)
